Measured values taken from ChEMBL document CHEMBL1201862, “PubChem BioAssay data set” (2004).
The source made the active and inactive calls.

Experiments:
cells [1] = assay type: functional, cell-based
cells [2] = assay type: functional, cell-based; remark: listed apart in the source
Coagulation factor XII = target: T1, Coagulation factor XII (Homo sapiens, UniProt P00748); assay type: functional;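 note: activated factor XIIa alpha cleaving a fluorogenic AMC peptide substrate; inhibitor potency from loss of enzyme activity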
T1 sequence (P00748 whole entry): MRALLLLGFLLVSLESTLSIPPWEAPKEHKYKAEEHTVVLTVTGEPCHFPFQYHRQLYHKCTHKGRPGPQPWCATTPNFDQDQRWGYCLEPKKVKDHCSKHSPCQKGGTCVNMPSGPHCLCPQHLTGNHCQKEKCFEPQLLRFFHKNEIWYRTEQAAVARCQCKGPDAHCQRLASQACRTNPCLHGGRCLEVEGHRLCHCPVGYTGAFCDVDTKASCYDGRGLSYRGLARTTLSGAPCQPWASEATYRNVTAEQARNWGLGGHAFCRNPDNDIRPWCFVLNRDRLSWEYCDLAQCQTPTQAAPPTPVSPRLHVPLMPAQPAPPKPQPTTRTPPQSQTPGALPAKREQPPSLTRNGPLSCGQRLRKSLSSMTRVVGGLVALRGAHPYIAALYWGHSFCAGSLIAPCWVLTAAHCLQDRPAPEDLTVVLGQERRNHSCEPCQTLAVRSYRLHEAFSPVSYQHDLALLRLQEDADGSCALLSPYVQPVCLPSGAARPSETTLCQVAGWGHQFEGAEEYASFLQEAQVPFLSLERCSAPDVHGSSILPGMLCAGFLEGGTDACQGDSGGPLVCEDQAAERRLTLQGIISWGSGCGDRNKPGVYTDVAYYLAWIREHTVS

Cytochrome P450 2C9 = Cytochrome P450 2C9 (Homo sapiens, UniProt P11712)
Cytochrome P450 2C19 = Cytochrome P450 2C19 (Homo sapiens, UniProt P33261); test: Cytochrome panel assay with activity outcomes. Panel member name: p450-cyp2c19 Compounds with AC50 equal or less than 10 uM are considered active; assay type: functional; settings: read-out: AC50
[3] = Luminescence Cell-Based Dose Confirmation HTS to Identify Inhibitors of Platelet Dense Granule Release. [Related pubchem assays: 1663 (Primary HTS), 1678 (Summary of Project)]; assay type: functional
Cytochrome P450 1A2 = target: T2, Cytochrome P450 1A2 (Homo sapiens, UniProt P05177);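 note: PubChem cytochrome P450 panel assay, CYP1A2 panel member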
T2 sequence (P05177 whole entry): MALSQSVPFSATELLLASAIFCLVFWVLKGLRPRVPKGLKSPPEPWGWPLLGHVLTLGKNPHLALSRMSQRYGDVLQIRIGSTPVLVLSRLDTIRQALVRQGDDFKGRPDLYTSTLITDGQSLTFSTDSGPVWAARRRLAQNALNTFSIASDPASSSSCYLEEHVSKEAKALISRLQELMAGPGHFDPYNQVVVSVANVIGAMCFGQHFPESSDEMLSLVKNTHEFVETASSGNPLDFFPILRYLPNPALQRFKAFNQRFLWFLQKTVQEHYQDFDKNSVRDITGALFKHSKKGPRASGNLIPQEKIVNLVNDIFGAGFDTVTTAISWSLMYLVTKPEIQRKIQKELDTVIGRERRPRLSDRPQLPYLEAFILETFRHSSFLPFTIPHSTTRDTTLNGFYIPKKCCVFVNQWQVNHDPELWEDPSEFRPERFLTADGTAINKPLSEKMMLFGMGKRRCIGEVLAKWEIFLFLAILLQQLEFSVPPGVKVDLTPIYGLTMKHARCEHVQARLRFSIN

[4] = target: Luciferin 4-monooxygenase (Photinus pyralis, UniProt P08659); test: inhibition of purified Photinus pyralis luciferase – biochemical, luminescence, dose response (AID 1891)
BJ [5] = test: BJ-TERT fibroblast viability loss – cell-based, RAS-independent, luminescence, dose response (AID 1933); assay type: functional; settings: Homo sapiens
[6] = DRD fibroblast viability loss – cell-based, non-viral oncogenic, luminescence, dose response (AID 1934); assay type: functional; settings: Homo sapiens
BJ [7] = test: cells; assay type: functional, cell-based; settings: Homo sapiens
BJ [8] = test: BJ-TERT-LT-ST fibroblast viability loss – cell-based, RAS-independent, luminescence, dose response (AID 1935); assay type: functional; settings: Homo sapiens;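 note: BJ fibroblasts immortalized with TERT plus LT and ST oncogenes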

Cytochrome P450 2C9, sequence (P11712 whole entry): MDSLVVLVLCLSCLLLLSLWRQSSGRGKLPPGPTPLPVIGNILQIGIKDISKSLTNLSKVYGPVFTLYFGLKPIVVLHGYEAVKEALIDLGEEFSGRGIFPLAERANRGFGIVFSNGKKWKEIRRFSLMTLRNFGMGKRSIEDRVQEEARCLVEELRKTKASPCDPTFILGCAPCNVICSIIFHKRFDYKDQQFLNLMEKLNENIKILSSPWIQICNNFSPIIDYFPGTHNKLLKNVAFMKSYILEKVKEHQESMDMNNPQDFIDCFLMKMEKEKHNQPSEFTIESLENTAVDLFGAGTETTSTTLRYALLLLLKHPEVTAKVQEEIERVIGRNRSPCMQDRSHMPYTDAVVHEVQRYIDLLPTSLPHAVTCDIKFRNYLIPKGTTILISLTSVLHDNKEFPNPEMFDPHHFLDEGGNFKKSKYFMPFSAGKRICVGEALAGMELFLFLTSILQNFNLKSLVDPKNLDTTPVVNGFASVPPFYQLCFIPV
Luciferin 4-monooxygenase, sequence (P08659 whole entry): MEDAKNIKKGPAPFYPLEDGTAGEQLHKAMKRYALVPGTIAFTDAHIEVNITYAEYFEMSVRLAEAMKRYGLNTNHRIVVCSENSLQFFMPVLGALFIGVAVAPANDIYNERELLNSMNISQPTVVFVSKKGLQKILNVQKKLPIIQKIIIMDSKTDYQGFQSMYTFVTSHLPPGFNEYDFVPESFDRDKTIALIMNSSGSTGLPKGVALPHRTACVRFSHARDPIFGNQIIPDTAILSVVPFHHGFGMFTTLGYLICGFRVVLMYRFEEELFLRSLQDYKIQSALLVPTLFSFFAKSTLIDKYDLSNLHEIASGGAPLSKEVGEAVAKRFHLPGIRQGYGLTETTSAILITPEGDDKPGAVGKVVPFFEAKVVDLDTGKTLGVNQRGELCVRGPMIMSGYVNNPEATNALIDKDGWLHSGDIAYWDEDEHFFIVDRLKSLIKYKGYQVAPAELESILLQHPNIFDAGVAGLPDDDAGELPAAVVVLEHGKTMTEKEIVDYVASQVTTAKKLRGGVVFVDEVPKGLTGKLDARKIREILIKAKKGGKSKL
Cytochrome P450 2C19, sequence (P33261 whole entry): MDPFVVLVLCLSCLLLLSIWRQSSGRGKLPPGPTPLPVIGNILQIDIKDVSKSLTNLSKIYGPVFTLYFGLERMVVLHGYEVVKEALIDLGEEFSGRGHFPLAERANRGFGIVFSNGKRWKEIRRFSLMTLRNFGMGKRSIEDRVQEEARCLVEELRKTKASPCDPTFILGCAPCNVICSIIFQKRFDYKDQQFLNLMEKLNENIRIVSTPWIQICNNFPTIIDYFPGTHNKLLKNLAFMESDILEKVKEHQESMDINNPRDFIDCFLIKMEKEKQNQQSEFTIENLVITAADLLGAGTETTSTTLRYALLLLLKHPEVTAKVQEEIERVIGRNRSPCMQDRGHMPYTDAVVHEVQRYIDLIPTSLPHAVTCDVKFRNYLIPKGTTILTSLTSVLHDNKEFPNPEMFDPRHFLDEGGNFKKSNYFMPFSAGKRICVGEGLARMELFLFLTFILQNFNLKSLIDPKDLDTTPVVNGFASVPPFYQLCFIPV

| IC50 (Coagulation factor XII) | Structure (SMILES) | EC50 (cells [1]) | EC50 (cells [2]) | other results |
| --- | --- | --- | --- | --- |
| – | CC1=NC(C#N)=C(C#N)NC(C)(C)C1 | > 350 µM (not active) | > 350 µM (not active) | – |
| > 50 µM (inactive) | CCCCCCCCCC(=O)Nn1cnc2ccccc2c1=O | – | – | – |
| > 50 µM (inactive) | O=C(C[n+]1cc(-c2ccccc2)n2c1CCC2)Nc1nc(-c2ccccc2)cs1 | – | – | – |
| > 50 µM (inactive) | COc1cccc2sc(NC(=O)c3ccc(S(=O)(=O)N4CCOCC4)cc3)nc12 | – | – | – |
| – | COc1ccc2nc(NC(=O)Nc3ccccc3OC)sc2c1 | 4.4 µM (active) | > 350 µM (not active) | – |
| – | Cc1c(C(c2cccc([N+](=O)[O-])c2O)c2c(C)n(C)n(-c3ccccc3)c2=O)c(=O)n(-c2ccccc2)n1C | – | – | AC50 (Cytochrome P450 2C9): 5.62 nM (inconclusive); AC50 (Cytochrome P450 2C19): 35.5 µM (inconclusive); EC50 [3]: > 112 µM (not active); AC50 (Cytochrome P450 1A2): 15.8 µM (inconclusive); EC50 [4]: > 112 µM (not active) |
| – | COC(=O)c1ccc(C)c(NC(=O)CN(c2cc(OC)ccc2OC)S(C)(=O)=O)c1 | – | – | EC50 (BJ [5]): > 150 µM (not active); EC50 [6]: > 150 µM (inconclusive); EC50 (BJ [7]): > 150 µM (not active); EC50 (BJ [8]): > 150 µM (not active) |
| > 50 µM (inactive) | CN1CCN(c2ccc(CNS(=O)(=O)Cc3ccc(Cl)cc3)cc2)CC1 | – | – | – |
| > 50 µM (inactive) | COc1cc(Cl)c(C)cc1NC(=O)CSC | – | – | – |
| – | CC(=O)NCCC(=O)Nc1cc(S(=O)(=O)N2CCOCC2)ccc1N1CCOCC1 | > 350 µM (not active) | > 350 µM (not active) | – |
| – | Cc1nc(-c2ccc(C(=O)Nc3ccccc3F)cc2)cs1 | – | – | EC50 (BJ [5]): 13.7 µM (active); EC50 [6]: 11 µM (active); EC50 (BJ [7]): 10.8 µM (active); EC50 (BJ [8]): 19.9 µM (active) |
| – | CCN(Cc1ccccc1)C(=O)CCNS(=O)(=O)c1ccc2c(c1)CC(C)N2C(C)=O (stereo not drawn) | > 350 µM (not active) | > 350 µM (not active) | – |
| – | COc1ccccc1CNC(=O)c1cccc(NC(=O)c2ccccc2)c1 | 56.2 µM (active) | > 350 µM (not active) | – |
